The target of assay [1] is Voltage-dependent L-type calcium channel subunit alpha-1C (Rattus norvegicus, UniProt P22002). In kind it is functional.
For assay [2], the target named is T1, Muscarinic acetylcholine receptor M2 (Homo sapiens, UniProt P08172).
T1 sequence (P08172 whole entry): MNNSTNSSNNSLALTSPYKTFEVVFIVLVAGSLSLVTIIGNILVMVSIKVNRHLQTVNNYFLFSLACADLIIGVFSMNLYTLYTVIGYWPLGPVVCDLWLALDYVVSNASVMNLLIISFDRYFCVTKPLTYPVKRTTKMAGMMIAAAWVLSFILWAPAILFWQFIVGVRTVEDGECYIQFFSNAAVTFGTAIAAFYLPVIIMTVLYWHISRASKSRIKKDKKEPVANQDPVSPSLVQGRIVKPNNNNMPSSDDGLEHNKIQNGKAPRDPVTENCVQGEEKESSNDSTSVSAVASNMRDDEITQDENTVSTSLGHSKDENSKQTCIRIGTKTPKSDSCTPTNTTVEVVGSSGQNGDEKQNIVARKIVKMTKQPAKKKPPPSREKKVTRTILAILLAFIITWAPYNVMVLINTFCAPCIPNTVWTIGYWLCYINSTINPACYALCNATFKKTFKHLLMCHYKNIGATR
In kind it is functional, cell-based.

For assay [3], the target named is T1, Muscarinic acetylcholine receptor M2. It counts as functional, cell-based. This is another data set of the same source.
Assay [4] concerns the target Cannabinoid receptor 1 (Homo sapiens, UniProt P21554). It counts as functional, cell-based.
In assay [5] the target is D(1A) dopamine receptor (Homo sapiens, UniProt P21728). It counts as functional, cell-based.
In assay [6] the target is Gamma-aminobutyric acid receptor subunit alpha-1 (Rattus norvegicus, UniProt P62813).
In assay [7] the target is Growth hormone secretagogue receptor type 1 (Homo sapiens, UniProt Q92847).
Assay [8] concerns the target T2, 5-hydroxytryptamine receptor 1A (Homo sapiens, UniProt P08908).
T2 sequence (P08908 whole entry): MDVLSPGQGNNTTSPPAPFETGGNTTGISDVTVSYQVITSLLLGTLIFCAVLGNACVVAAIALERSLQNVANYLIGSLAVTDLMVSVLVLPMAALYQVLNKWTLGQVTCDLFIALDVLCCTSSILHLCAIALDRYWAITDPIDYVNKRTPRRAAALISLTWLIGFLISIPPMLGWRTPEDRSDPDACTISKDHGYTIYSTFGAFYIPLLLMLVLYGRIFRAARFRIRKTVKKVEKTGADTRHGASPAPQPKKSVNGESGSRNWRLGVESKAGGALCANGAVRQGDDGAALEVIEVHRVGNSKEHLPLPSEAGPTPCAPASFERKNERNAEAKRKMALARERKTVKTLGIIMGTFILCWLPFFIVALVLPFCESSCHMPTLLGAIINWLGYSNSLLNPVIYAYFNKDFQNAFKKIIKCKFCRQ
In kind it is functional, cell-based.

For assay [9], the target named is Delta-type opioid receptor (Homo sapiens, UniProt P41143).
Assay [10] deals with T3, Progesterone receptor (Homo sapiens, UniProt P06401).
T3 sequence (P06401 whole entry): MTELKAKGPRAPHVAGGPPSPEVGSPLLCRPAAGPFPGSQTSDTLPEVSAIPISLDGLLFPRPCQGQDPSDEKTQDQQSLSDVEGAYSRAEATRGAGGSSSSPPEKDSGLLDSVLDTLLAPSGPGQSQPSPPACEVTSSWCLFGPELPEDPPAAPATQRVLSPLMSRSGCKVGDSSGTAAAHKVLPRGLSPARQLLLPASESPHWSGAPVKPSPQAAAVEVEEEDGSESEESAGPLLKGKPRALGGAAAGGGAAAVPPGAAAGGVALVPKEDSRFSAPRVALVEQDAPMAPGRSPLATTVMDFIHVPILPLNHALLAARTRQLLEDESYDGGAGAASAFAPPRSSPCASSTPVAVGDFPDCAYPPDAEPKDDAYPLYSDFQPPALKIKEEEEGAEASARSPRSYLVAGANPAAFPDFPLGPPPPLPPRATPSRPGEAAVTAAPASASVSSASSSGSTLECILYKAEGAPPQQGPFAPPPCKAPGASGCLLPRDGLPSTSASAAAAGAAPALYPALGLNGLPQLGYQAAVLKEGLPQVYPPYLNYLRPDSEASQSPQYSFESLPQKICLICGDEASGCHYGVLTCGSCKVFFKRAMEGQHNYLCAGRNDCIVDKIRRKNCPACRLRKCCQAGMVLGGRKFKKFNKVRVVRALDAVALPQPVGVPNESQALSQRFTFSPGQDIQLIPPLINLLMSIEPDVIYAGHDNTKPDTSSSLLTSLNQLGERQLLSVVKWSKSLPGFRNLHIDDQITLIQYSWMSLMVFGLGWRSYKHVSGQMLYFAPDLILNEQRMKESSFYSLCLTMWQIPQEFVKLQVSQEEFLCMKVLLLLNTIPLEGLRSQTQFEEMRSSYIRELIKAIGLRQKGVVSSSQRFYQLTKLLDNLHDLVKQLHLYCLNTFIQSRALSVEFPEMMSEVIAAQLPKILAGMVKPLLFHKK
It counts as functional.

Assay [11] deals with Sodium-dependent dopamine transporter (Homo sapiens, UniProt Q01959).
Assay [12] has as its target Mu-type opioid receptor (Homo sapiens, UniProt P35372).
Assay [13] has as its target Beta-2 adrenergic receptor (Homo sapiens, UniProt P07550). It counts as functional, cell-based.
In assay [14] the target is Histamine H3 receptor (Homo sapiens, UniProt Q9Y5N1).
Assay [15] concerns the target T4, Alpha-1A adrenergic receptor (Homo sapiens, UniProt P35348).
T4 sequence (P35348 whole entry): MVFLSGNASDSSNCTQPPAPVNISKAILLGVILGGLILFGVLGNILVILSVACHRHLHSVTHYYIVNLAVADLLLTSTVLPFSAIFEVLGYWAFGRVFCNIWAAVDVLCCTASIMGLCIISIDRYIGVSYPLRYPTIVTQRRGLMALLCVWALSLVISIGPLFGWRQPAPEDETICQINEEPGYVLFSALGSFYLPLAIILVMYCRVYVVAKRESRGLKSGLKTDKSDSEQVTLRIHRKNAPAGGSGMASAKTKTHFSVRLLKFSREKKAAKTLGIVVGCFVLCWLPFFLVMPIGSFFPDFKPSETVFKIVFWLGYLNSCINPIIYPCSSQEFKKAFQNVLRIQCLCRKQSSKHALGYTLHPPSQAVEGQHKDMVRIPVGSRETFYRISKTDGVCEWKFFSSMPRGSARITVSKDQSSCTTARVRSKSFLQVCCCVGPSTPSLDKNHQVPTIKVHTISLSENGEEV
In kind it is functional, cell-based.

Structures are written as SMILES.

This note sets out measurements from ChEMBL document CHEMBL5291721, “A preclinical secondary pharmacology resource illuminates target-adverse drug reaction associations of marketed drugs” (Nat Commun, 2023).
Note: assay procedure not described here.

Cannabinoid receptor 1, sequence (P21554 whole entry): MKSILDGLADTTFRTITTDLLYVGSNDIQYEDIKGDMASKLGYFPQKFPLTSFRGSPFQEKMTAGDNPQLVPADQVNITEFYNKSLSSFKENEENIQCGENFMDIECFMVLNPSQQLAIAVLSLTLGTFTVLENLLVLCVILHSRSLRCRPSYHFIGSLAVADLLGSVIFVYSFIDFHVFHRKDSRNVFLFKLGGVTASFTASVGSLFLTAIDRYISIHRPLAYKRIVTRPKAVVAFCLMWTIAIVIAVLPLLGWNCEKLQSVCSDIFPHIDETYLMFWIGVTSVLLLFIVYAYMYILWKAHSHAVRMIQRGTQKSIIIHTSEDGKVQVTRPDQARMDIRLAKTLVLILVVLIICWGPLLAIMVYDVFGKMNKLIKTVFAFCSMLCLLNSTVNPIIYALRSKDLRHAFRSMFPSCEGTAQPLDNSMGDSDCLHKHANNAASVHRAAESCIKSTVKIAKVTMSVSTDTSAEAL
Histamine H3 receptor, sequence (Q9Y5N1 whole entry): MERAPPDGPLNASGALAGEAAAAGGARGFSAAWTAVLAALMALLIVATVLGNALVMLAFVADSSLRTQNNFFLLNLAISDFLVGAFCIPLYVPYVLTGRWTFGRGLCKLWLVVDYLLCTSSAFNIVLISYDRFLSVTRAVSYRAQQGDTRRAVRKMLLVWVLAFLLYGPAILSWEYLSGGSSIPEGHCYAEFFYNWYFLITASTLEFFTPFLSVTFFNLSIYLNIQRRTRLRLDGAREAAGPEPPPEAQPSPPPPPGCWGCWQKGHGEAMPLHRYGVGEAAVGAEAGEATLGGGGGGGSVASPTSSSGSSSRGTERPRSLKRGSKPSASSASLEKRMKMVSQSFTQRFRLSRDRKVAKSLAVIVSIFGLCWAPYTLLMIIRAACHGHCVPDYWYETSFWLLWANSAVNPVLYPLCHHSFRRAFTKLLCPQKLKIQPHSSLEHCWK
Sodium-dependent dopamine transporter, sequence (Q01959 whole entry): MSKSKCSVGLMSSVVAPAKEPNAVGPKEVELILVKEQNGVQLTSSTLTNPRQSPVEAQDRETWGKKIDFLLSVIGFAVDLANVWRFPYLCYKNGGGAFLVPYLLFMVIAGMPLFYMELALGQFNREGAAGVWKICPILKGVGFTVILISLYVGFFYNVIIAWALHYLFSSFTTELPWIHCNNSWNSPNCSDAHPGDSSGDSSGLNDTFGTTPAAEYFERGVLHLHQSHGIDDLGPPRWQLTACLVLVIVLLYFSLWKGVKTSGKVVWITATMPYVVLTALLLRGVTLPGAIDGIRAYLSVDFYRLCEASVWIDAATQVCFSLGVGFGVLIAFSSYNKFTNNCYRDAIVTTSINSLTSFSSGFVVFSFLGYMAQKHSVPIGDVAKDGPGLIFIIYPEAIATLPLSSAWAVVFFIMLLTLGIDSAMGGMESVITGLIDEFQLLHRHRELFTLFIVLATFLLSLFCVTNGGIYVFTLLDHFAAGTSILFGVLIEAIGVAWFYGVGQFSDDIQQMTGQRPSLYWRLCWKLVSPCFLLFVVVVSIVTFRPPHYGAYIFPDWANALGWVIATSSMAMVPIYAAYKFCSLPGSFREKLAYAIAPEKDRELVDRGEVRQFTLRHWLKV
Delta-type opioid receptor, sequence (P41143 whole entry): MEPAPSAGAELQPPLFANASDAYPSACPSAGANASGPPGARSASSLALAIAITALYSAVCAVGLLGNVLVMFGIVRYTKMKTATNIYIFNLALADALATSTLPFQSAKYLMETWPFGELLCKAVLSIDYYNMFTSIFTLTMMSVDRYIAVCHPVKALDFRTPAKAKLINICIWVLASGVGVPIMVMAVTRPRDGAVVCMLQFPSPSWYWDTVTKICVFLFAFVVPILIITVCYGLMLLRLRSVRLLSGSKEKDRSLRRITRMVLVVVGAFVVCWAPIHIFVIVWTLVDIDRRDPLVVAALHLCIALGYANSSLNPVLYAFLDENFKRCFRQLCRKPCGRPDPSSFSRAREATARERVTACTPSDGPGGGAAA
Beta-2 adrenergic receptor, sequence (P07550 whole entry): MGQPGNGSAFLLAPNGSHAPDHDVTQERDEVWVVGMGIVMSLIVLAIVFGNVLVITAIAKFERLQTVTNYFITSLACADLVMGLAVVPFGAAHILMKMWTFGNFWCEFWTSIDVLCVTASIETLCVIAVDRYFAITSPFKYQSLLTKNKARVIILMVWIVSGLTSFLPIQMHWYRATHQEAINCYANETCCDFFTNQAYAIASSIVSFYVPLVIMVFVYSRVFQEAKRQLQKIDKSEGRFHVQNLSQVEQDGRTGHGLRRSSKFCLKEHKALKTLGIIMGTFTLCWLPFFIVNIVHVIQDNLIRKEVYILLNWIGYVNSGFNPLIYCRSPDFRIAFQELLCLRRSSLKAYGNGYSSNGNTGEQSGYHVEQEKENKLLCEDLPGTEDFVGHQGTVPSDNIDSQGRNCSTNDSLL
Mu-type opioid receptor, sequence (P35372 whole entry): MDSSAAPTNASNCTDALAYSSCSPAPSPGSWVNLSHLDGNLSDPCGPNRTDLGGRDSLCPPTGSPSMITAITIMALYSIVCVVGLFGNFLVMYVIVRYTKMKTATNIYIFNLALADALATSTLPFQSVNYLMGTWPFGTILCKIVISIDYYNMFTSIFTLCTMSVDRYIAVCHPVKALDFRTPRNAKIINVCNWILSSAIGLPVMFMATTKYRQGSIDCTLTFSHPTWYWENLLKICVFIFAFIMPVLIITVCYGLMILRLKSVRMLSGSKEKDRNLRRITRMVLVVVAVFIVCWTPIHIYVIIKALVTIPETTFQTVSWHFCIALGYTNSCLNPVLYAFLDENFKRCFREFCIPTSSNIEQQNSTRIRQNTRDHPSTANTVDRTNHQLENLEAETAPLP
Growth hormone secretagogue receptor type 1, sequence (Q92847 whole entry): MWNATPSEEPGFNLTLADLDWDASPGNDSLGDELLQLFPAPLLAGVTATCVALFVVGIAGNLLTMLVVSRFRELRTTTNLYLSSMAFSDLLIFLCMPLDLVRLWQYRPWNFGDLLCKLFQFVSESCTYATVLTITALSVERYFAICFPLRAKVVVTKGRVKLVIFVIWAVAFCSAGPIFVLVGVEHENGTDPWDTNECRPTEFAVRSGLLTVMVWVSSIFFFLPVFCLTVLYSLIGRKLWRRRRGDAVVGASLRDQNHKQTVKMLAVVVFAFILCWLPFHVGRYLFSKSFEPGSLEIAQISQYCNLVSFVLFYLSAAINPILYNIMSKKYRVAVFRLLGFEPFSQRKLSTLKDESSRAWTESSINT
Gamma-aminobutyric acid receptor subunit alpha-1, sequence (P62813 whole entry): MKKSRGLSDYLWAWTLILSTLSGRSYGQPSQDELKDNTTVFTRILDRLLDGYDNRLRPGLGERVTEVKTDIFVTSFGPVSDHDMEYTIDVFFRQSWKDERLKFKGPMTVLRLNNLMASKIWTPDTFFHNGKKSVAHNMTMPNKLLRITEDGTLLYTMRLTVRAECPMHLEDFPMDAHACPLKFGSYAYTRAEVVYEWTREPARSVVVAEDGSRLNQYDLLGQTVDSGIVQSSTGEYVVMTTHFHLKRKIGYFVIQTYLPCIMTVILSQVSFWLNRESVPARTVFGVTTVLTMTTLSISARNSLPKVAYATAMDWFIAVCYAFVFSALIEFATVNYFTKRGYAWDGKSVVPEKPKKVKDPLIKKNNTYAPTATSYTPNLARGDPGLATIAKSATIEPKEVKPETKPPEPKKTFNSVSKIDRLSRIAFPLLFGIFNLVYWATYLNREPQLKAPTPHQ
D(1A) dopamine receptor, sequence (P21728 whole entry): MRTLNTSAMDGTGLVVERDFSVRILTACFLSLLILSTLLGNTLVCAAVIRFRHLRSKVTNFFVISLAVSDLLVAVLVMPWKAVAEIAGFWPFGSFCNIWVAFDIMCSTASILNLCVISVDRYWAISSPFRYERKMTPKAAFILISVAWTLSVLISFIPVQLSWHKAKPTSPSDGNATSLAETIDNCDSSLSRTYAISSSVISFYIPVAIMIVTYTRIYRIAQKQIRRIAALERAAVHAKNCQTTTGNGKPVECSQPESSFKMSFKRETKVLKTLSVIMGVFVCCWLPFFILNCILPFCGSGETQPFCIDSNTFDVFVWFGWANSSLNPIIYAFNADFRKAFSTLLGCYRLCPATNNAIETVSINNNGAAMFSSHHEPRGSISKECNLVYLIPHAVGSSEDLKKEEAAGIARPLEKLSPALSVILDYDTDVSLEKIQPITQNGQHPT

Regarding `C[C@]12C=CC(=O)N[C@@H]1CC[C@@H]1[C@@H]2CC[C@]2(C)[C@@H](C(=O)Nc3cc(C(F)(F)F)ccc3C(F)(F)F)CC[C@@H]12` [DUTASTERIDE], the AC50 in [1] was over 10 µM; in [2] it was over 10 µM; in [3], over 10 µM; in [4], over 30 µM; in assay [5] it was over 10 µM; in [6], over 10 µM. For the same molecule, the concentration at half-maximal activity (AC50) was over 10 µM in assay [7]; over 10 µM in assay [8]; over 30 µM in assay [9]; over 10 µM in assay [10]; over 10 µM in assay [11]; over 30 µM in [12].

For `OC[C@H]1O[C@@](CO)(O[C@H]2O[C@H](CO)[C@@H](O)[C@H](O)[C@H]2O)[C@@H](O)[C@@H]1O` [SUCROSE], the AC50 in assay [13], in assay [2], in assay [3], in [4], in [5] and in [6] was over 30 µM each time. Further, the concentration at half-maximal activity (AC50) in assay [7], in [8], in [9], in [10], in assay [11] and in [14] was over 30 µM throughout.

On to `CC(C(=O)O)c1ccc2c(c1)[nH]c1ccc(Cl)cc12` (centres undefined) [CARPROFEN], for which the AC50 in [1] is over 10 µM; in assay [2] it was over 10 µM; in [3], over 10 µM; in assay [5], over 10 µM; in [6], over 10 µM; in assay [7] it was over 30 µM. The AC50 in assay [8] was over 10 µM; in assay [9], over 30 µM; in [10], over 30 µM; in assay [11] it was over 30 µM; in [12] it was over 30 µM; in assay [14], over 30 µM.

Turning to `CN(CC1(C)CCCO1)S(=O)(=O)c1ccc(Cl)c(S(N)(=O)=O)c1` (centres undefined) [MEFRUSIDE], the AC50 in assay [13], in assay [4], in assay [5], in assay [6], in assay [8] and in assay [9] was over 30 µM throughout.

As to `C#C[C@]1(O)CC[C@H]2[C@@H]3CCC4=CC(=O)CC[C@@H]4[C@H]3C(=C)C[C@@]21CC` [ETONOGESTREL], the AC50 in [13], in [4], in assay [5], in assay [6], in assay [8] and in assay [9] was over 30 µM throughout.

On to `CC(=O)O[C@]1(C(C)=O)CC[C@H]2[C@@H]3C=C(C)C4=CC(=O)CC[C@@H]4[C@H]3CC[C@@]21C` [NOMEGESTROL ACETATE], for which the half-maximal activity concentration (AC50) in [15], in assay [13], in assay [2], in assay [3], in assay [4] and in [5] was over 30 µM throughout. The AC50 in assay [6], in assay [9] and in [11] was over 30 µM throughout.

With `CN(C)CCC[C@@]1(c2ccc(F)cc2)OCc2cc(C#N)ccc21` [ESCITALOPRAM], the AC50 in assay [13], in assay [4], in [7], in [8], in [9] and in assay [10] was over 30 µM each time. Moreover, the AC50 in assay [14] is over 30 µM.

For `C=C[C@H]1C[N@@]2CC[C@H]1C[C@@H]2[C@@H](O)c1ccnc2ccc(OC)cc12` [QUINIDINE], the half-maximal activity concentration (AC50) in [13] was over 30 µM; in [2] it was over 10 µM; in [3], over 10 µM; in assay [4] it was over 30 µM; in assay [5], over 10 µM; in assay [7] it was over 30 µM. The AC50 in assay [9] is over 30 µM; in assay [11] it was 9.56 µM; in assay [12], 6.2 µM; in assay [14], over 10 µM.
